In patent US20060030566A1, “Novel quinoxalinone norepinephrine reuptake inhibitors for the treatment of central nervous system disorders” (Warner-Lambert Company, LLC, priority 2004, published 2006):
Where a name gives a salt, the structure may show the parent alone.

Experiments:
[1] = molecular target: T1, human norepinephrine transporter (Homo sapiens, UniProt P23975); experiment: hNET receptor binding ([125I]-RTI-55 radioligand binding, membranes of transfected HEK-293 cells); conditions: 50 pM [125I]-RTI-55, HEK-293 cell membranes, 90 min at room temperature; IC50 converted to Ki by Cheng-Prusoff equation
T1 construct: host or cells: HEK-293
T1 sequence (P23975 whole entry): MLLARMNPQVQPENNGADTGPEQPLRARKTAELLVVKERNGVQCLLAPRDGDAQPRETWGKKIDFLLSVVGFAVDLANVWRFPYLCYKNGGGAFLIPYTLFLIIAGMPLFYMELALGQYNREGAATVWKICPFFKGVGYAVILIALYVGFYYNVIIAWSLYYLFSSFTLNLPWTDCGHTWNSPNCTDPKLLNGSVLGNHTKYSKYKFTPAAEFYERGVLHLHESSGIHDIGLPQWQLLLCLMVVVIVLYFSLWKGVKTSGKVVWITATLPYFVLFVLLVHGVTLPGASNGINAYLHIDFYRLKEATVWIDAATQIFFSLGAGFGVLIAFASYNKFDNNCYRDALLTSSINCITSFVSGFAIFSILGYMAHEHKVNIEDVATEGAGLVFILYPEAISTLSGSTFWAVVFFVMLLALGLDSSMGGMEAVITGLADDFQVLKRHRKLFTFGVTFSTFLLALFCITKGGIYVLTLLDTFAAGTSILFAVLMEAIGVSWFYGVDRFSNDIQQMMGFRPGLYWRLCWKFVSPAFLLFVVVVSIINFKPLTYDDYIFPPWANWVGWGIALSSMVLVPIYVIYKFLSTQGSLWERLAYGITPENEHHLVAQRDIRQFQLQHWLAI
Description: The ability of the compounds of this invention to bind to the hNET and serotonin SERT receptor can be determined using conventional radioligand receptor binding assays. The receptors can be heterologously expressed in cell lines and experiments conducted in membrane preparations from the cell lines using procedures outlined below. IC50 concentrations can be determined by nonlinear regression of concentration-dependent reduction in specific binding. The Cheng-Prussoff equation can be used to convert the IC50 to Ki concentrations.
Cell pastes of HEK-293 cells transfected with the human norepinephrine transporter were supplied by the Pfizer Ann Arbor Protein Expression and Production group. Pellets were resuspended in 400 to 700 ml of Krebs-HEPES assay buffer (25 mM HEPES, 122 mM NaCl, 3 mM KCl, 1.2 mM MgSO4, 1.3 mM CaCl2, and 11 mM glucose, pH 7.4) with a Polytron homogenizer at setting 7 for 30 sec. Aliquots of membranes (5 mg/ml protein) were stored in liquid nitrogen until used.
The binding assay was set up in Beckman deep-well polypropylene plates with a total volume of 250 μl containing: drug (10^−5M to 10^−12M), cell membranes, and 50 pM [^125I]-RTI-55 (Perkin Elmer, NEX-272; specific activity 2200 Ci/mmol). The reaction was incubated by gentle agitation for 90 min at room temperature and was terminated by filtration through Whatman GF/C filter plates using a Brandel 96-well plate harvester. Scintillation fluid (100 μl) was added to each well, and bound [^125I]-RTI-55 was determined using a Wallac Trilux Beta Plate Counter. Test compounds were run in duplicate, and specific binding was defined as the difference between binding in the presence and absence of 10 μM desipramine.
Excel and GraphPad Prism software were used for data calculation and analysis. IC50 values were converted to Ki values using the Cheng-Prusoff equation.

| Ki [1] | melting point | SMILES |
| --- | --- | --- |
| 15 nM | 146 to 147 °C | O=c1c(N2CCNCC2)nc2cc(F)ccc2n1-c1c(F)cccc1F [Example 10, 1-(2,6-Difluoro-phenyl)-6-fluoro-3-piperazin-1-yl-1H-quinoxalin-2-one] |
| 69 nM | 151 to 153 °C | Cc1ccccc1-n1c(=O)c(N2CCNCC2)nc2ccccc21 [Example 5, 3-Piperazin-1-yl-1-o-tolyl-1H-quinoxalin-2-one] |
|  | 261 to 263 °C | O=c1c(N2CCNCC2)nc2ccccc2n1-c1ccccc1F (as salt: hydrochloride) [Example 3, 1-(2-Fluoro-phenyl)-3-piperazin-1-yl-1H-quinoxalin-2-one Hydrochloride] |
|  | 290 to 292 °C | O=c1c(N2CCNCC2)nc2ccccc2n1-c1ccccc1 (as salt: hydrochloride) [Example 2, 1-Phenyl-3-piperazin-1-yl-1H-quinoxalin-2-one Hydrochloride] |
| 82 nM | 166 to 168 °C | Cc1ccc2nc(N3CCNCC3)c(=O)n(-c3ccccc3)c2c1 [Example 9, 7-Methyl-1-phenyl-3-piperazin-1-yl-1H-quinoxalin-2-one] |
| 11 nM |  | O=c1c(N2CCNCC2)nc2ccccc2n1-c1ccccc1F [Example 3, 1-(2-Fluoro-phenyl)-3-piperazin-1-yl-1H-quinoxalin-2-one Hydrochloride] |
| 12 nM | 150 to 152 °C | O=c1c(N2CCNCC2)nc2cc(F)ccc2n1-c1ccccc1 [Example 1, 6-Fluoro-1-phenyl-3-piperazin-1-yl-1H-quinoxalin-2-one] |
|  | 159 to 161 °C | O=c1c(N2CCCNCC2)nc2ccccc2n1-c1ccccc1Cl (as salt: maleate) [Example 11, 1-(2-Chloro-phenyl)-3-[1,4]diazepan-1-yl-1H-quinoxalin-2-one Maleate] |
| 59 nM | 142 to 143 °C | O=c1c(N2CCNCC2)nc2ccc(F)cc2n1-c1ccccc1 [Example 8, 7-Fluoro-1-phenyl-3-piperazin-1-yl-1H-quinoxalin-2-one] |
|  | 197 to 199 °C | Cc1ccc(-n2c(=O)c(N3CCNCC3)nc3ccccc32)cc1 (as salt: maleate) [Example 7, 3-Piperazin-1-yl-1-p-tolyl-1H-quinoxalin-2-one Maleate] |
| 27 nM | 151 to 152 °C | O=c1c(N2CCCNCC2)nc2cc(F)ccc2n1-c1ccccc1 [Example 14, 3-[1,4]Diazepan-1-yl-6fluoro-1-phenyl-1H-quinoxalin-2-one] |
| 38 nM | 149 to 150 °C | O=c1c(N2CCNCC2)nc2ccccc2n1-c1cccc(F)c1 [Example 6, 1-(3-Fluoro-phenyl)-3-piperazin-1-yl-1H-quinoxalin-2-one] |
| 21 nM |  | O=c1c(N2CCNCC2)nc2ccccc2n1-c1ccccc1 [Example 2, 1-Phenyl-3-piperazin-1-yl-1H-quinoxalin-2-one Hydrochloride] |
| 97 nM |  | Cc1ccc(-n2c(=O)c(N3CCCNCC3)nc3ccccc32)cc1 [Example 13, 3-[1,4]Diazepan-1-yl-1-p-tolyl-1H-quinoxalin-2-one Maleate] |
| 41 nM |  | O=c1c(N2CCCNCC2)nc2ccccc2n1-c1ccccc1Cl [Example 11, 1-(2-Chloro-phenyl)-3-[1,4]diazepan-1-yl-1H-quinoxalin-2-one Maleate] |
|  | 147 to 149 °C | CC(C)n1c(=O)c(N2CCCNCC2)nc2ccccc21 (as salt: maleate) [Example 15, 3-[1,4]Diazepan-1-yl-1-isopropyl-1H-quinoxalin-2-one Maleate] |
| 70 nM |  | CC(C)n1c(=O)c(N2CCCNCC2)nc2ccccc21 [Example 15, 3-[1,4]Diazepan-1-yl-1-isopropyl-1H-quinoxalin-2-one Maleate] |
| 60 nM | 128 to 129 °C | O=c1c(N2CCCNCC2)nc2ccccc2n1-c1cccc(F)c1 [Example 12, 3-[1,4]Diazepan-1-yl-1-(3-fluoro-phenyl)-1H-quinoxalin-2-one] |
|  | 199 to 200 °C | Cc1ccc(-n2c(=O)c(N3CCCNCC3)nc3ccccc32)cc1 (as salt: maleate) [Example 13, 3-[1,4]Diazepan-1-yl-1-p-tolyl-1H-quinoxalin-2-one Maleate] |
| 44 nM | 135 to 137 °C | O=c1c(N2CCNCC2)nc2ccccc2n1-c1ccccc1Cl [Example 4, 1-(2-Chloro-phenyl)-3-piperazin-1-yl-1H-quinoxalin-2-one] |
| 36 nM |  | Cc1ccc(-n2c(=O)c(N3CCNCC3)nc3ccccc32)cc1 [Example 7, 3-Piperazin-1-yl-1-p-tolyl-1H-quinoxalin-2-one Maleate] |
